Laboratory results published in US12721826B2, “Salt of a pharmaceutical compound” (ACTIMED THERAPEUTICS LTD, priority 2023, dated 2026).

Legend:
[1] = Solid form stability: XRPD re-analysis after drying under vacuum and after storage at 40° C./75% RH; format: physicochemical; settings: for XRPD form after drying and storage: after drying at 40° C. under vacuum and storage at 40° C./75% RH; for hygroscopicity properties: overall assessment in words
Description: XRPD analysis was carried out on a PANalytical X'pert pro with PIXcel detector (128 channels), scanning the samples between 3 and 35° 2θ. The material was gently ground to release any agglomerates and loaded onto a multi-well plate with Kapton or Mylar polymer film to support the sample. The multi-well plate was then placed into the diffractometer and analysed using Cu K radiation (α1 λ=1.54060 Å; α2=1.54443 Å; β=1.39225 Å; α1: α2 ratio=0.5) running in transmission mode (step size 0.0130° 2θ, step time 18.87s) using 40 kV/40 mA generator settings. Data were visualized and images generated using the HighScore Plus 4.7 desktop application (PANalytical, 2017).
Solutions were allowed to evaporate at ambient temperature (ca. 20° C.) and pressure. Potential salts were dried at 40° C. under vacuum for ca. 19 h and re-analyzed by XRPD then stored at 40° C./75% RH for ca. 19 h and re-analyzed by XRPD.

[2] = counterion acid; cited from earlier work
[3] = 7 days storage stability of dihydrogenphosphate polymorphs (HPLC purity); settings: for stability (comparison of polymorphs, in words): Pattern 3 compared with Pattern 1 and Pattern 2
[4] = storage at 40° C./75% RH, ca. 19 h
[5] = after drying at 40° C. under vacuum

SMILES: C=CCOc1ccccc1OC[C@@H](O)CNC(C)C.O=C(O)C(=O)O [Oxalate Pattern 1 & 2, S-oxprenolol oxalate]
- Observation after storage at 40° C./75% RH [1, 4]: predominantly unchanged

SMILES: O=S(=O)(O)c1ccccc1 [Benzenesulfonic acid]
- pKa1 [2]: 0.7

SMILES: O=C(O)CCCC(=O)O [Glutaric acid]
- pKa1 [2]: 4.34

SMILES: C=CCOc1ccccc1OC[C@@H](O)CNC(C)C.O=P(O)(O)O [S-oxprenolol dihydrogenphosphate Pattern 1]
- XRPD form after stress ([1]; after heating to 40° C., drying at ambient temperature (ca. 20° C.) under vacuum and storage at 40° C./75% RH): dihydrogenphosphate Pattern 1 to remain
- stability (comparison of polymorphs, in words) [3]: issues with stability

SMILES: C=CCOc1ccccc1OC[C@@H](O)CNC(C)C.O=P(O)(O)O [S-oxprenolol dihydrogenphosphate Pattern 3]
- stability (comparison of polymorphs, in words) [3]: improved stability
- HPLC purity following storage ([3]; after 7 days storage at 40° C./75% RH): > 99.9 % area
- HPLC purity following storage ([3]; after 7 days storage at ambient temperature): > 99.9 % area

SMILES: C=CCOc1ccccc1OC[C@@H](O)CNC(C)C.O=P(O)(O)O [S-oxprenolol dihydrogenphosphate Pattern 2]
- XRPD form after drying ([1]; dried under vacuum at ambient temperature (ca. 20° C.) for ca. 69 h, precipitated from ethanol/heptane): phosphate Pattern 3 was obtained after drying
- XRPD form after drying ([1]; isolated from temperature cycling in 1-butanol, after drying): converted to phosphate Pattern 3
- stability (comparison of polymorphs, in words) [3]: issues with stability

SMILES: O=C(O)CNC(=O)c1ccccc1 [Hippuric acid]
- pKa1 [2]: 3.6

SMILES: C=CCOc1ccccc1OC[C@@H](O)CNC(C)C.O=C(O)c1ccc2ccccc2c1O [xinafoate Pattern 1]
- XRPD form after drying and storage [1]: xinafoate Pattern 1 was retained

SMILES: C=CCOc1ccccc1OC[C@@H](O)CNC(C)C.CC(=O)O [acetate salt]
- hygroscopicity properties [1]: poor

SMILES: CC1(C)C2CCC1(CS(=O)(=O)O)C(=O)C2 (stereo not shown) [Camphorsulfonic acid]
- pKa1 [2]: 2.2

SMILES: C=CCOc1ccccc1OC[C@@H](O)CNC(C)C.O=C(O)CNC(=O)c1ccccc1 [hippurate Pattern 1]
- XRPD form after drying [1, 5]: hippurate Pattern 1 was retained
- hygroscopicity properties [1]: poor
- Observation after storage at 40° C./75% RH [1, 4]: deliquescence was observed to amorphous materials

SMILES: O=C(O)c1cc2ccccc2c(Cc2c(O)c(C(=O)O)cc3ccccc23)c1O [Pamoic acid]
- pKa1 [2]: 2.5
- pKa2 [2]: 3.1

SMILES: C=CCOc1ccccc1OC[C@@H](O)CNC(C)C.CC(=O)O [Acetate Pattern 2]
- Observation after storage at 40° C./75% RH ([1]; material from THF): partially deliquesce
- XRPD result after storage at 40° C./75% RH ([1]; material from acetone): Pattern 2 peaks remained
- Observation after storage at 40° C./75% RH ([1]; material from acetone, ethyl acetate and t-BME): deliquesced
- XRPD result after storage at 40° C./75% RH ([1]; material from ethyl acetate and t-BME): Predominantly amorphous material was obtained

SMILES: O=S(=O)(O)CCS(=O)(=O)O [Ethane-1,2-disulfonic acid]
- pKa1 [2]: −2.1
- pKa2 [2]: −1.5

SMILES: CCS(=O)(=O)O [Ethanesulfonic acid]
- pKa1 [2]: 2.1

SMILES: C=CCOc1ccccc1OC[C@@H](O)CNC(C)C.O=C(O)C(=O)O [oxalate Pattern 1, S-oxprenolol oxalate]
- XRPD form after drying and storage [1]: oxalate Pattern 1 was retained

SMILES: C=CCOc1ccccc1OC[C@@H](O)CNC(C)C.O=C(O)C(=O)O [oxalate Pattern 2, S-oxprenolol oxalate]
- XRPD form after drying [1, 5]: a mixture of Pattern 1 and 2 was obtained

SMILES: O=C(O)c1ccccc1C(=O)O [Phthalic acid]
- pKa1 [2]: 2.89
- pKa2 [2]: 5.51

SMILES: O=C(O)[C@H](O)[C@@H](O)[C@H](O)[C@H](O)CO [D-Gluconic acid]
- pKa1 [2]: 3.8

SMILES: O=S(=O)(O)c1cccc2c(S(=O)(=O)O)cccc12 [Naphthalene-1,5-disulfonic acid]
- pKa1 [2]: −3.4
- pKa2 [2]: −2.6
